This is an account of results in patent US10479780B2, “Aminopyrazole derivatives” (Chugai Seiyaku Kabushiki Kaisha, priority 2015, dated 2019).

Assay type in all cases: biochemical
Experiment [1] addresses T1, human Yes1 enzyme (Homo sapiens, UniProt P07947).
T1 construct: made in house
As to the kind of experiment: Yes1 enzyme inhibitory activity (time-resolved fluorometry, biotinylated peptide phosphorylation). To be noted: read-out: YES_IC50. The procedure:
(§1) 1. Yes1 Enzyme Inhibitory Activity Yes1 inhibitory activity was determined based on activity of inhibiting phosphorylation reaction of a biotinylated peptide (EGPWLEEEEEAYGWMDF) using a human Yes1 enzyme prepared using a baculovirus expression system. The phosphorylated biotinylated peptide was detected by time-resolved fluorometry using an anti-phosphorylated tyrosine antibody conjugated to europium cryptate, and streptavidin conjugated to XL665, an allophycocyanin derivative. The 50% inhibitory concentration (IC50) was calculated from the inhibition rate relative to the control group without containing the test substance.

Experiment [2] concerns the target T2, human Lck enzyme (Homo sapiens, UniProt P06239).
T2 construct: purchased Carna Biosciences, Inc. 08-170
As to the kind of experiment: Lck enzyme inhibitory activity (time-resolved fluorometry, biotinylated peptide phosphorylation). To be noted: read-out: LCK_IC50. As to the method: as §1, with “3. Lck” for “1. Yes1”, “Lck” for “Yes1”, “(manufactured by Carna Biosciences, Inc., cat 08-170).” for “prepared using a baculovirus expression system.”

Experiment [3] has as its target T3, human Src enzyme (Homo sapiens, UniProt P12931).
T3 construct: purchased Carna Biosciences, Inc. 08-173
As to the kind of experiment: Src enzyme inhibitory activity (time-resolved fluorometry, biotinylated peptide phosphorylation). The conditions noted are these: read-out: SRC_IC50. As to the method:
as §1, with “2. Src” for “1. Yes1”, “Src” for “Yes1”, “(manufactured by Carna Biosciences, Inc., cat 08-173).” for “prepared using a baculovirus expression system.”

[4] abbreviates: biotinylated peptide phosphorylation.

Where two headings read alike, the source gives them in different places.

T3 sequence (P12931 whole entry): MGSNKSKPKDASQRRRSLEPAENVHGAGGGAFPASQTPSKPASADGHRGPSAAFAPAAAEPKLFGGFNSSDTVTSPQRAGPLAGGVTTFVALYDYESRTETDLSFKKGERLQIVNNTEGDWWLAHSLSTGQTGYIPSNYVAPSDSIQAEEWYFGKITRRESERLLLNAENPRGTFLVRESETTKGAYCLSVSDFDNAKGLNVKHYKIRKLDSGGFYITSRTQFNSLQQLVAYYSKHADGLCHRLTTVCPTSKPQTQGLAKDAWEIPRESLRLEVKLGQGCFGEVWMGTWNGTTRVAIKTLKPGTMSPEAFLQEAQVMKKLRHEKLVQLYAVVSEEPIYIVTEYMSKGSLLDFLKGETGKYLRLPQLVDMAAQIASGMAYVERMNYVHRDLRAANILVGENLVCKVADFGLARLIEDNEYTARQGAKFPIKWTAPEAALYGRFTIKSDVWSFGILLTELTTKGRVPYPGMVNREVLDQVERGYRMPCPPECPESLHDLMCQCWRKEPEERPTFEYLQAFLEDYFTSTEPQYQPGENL
T1 sequence (P07947 whole entry): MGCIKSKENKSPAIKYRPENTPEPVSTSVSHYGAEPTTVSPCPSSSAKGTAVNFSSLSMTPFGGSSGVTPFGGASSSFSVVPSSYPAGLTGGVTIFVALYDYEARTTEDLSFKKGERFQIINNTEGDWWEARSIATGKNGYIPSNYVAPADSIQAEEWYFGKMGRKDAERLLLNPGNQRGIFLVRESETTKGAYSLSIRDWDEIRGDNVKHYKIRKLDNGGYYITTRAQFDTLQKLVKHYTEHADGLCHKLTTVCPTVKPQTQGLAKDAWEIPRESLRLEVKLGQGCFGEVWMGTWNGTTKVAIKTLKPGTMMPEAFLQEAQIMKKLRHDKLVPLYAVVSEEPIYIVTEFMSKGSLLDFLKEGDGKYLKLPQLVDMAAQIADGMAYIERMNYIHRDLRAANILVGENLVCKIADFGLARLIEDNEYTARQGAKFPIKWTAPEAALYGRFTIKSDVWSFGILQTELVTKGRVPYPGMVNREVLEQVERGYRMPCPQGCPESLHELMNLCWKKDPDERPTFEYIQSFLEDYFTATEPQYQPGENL
T2 sequence (P06239 whole entry): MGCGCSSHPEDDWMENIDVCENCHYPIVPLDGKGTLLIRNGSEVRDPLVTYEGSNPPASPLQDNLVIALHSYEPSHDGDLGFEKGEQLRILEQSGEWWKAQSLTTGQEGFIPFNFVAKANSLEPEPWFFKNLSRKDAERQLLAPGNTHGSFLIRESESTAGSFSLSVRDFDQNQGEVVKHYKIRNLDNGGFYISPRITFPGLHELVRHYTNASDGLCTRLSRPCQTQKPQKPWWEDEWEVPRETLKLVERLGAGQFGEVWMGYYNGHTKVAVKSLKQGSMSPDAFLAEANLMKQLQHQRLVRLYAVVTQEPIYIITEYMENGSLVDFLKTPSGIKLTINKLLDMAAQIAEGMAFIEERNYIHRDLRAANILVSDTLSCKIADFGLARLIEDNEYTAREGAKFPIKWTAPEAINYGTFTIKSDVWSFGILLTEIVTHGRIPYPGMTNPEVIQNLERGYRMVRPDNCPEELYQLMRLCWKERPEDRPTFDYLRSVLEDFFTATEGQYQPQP

`Cc1cc(Oc2c(F)cccc2F)ncc1-n1ncc(C(=O)c2cc3cc(N4CCOCC4)c(NS(=O)(=O)CCCF)cc3[nH]2)c1N` [Example 4-24-019, N-[2-[5-amino-1-[6-(2,6-difluorophenoxy)-4-methylpyridin-3-yl]pyrazole-4-carbonyl]-5-morpholin-4-yl-1H-indol-6-yl]-3-fluoropropane-1-sulfonamide]: the IC50 was 3.9 nM in experiment [1] (setting [4]), 62 nM in experiment [2] (setting [4]) and 140 nM in experiment [3] (setting [4]).
Consider `Cc1cc(Oc2ccccc2F)ccc1-n1ncc(C(=O)c2cc3cc(OCC(F)F)c(NS(=O)(=O)C4CCOCC4)cc3[nH]2)c1N` [Example 5-1-325, N-[2-[5-amino-1-[4-(2-fluorophenoxy)-2-methylphenyl]pyrazole-4-carbonyl]-5-(2,2-difluoroethoxy)-1H-indol-6-yl]oxane-4-sulfonamide], for which the results for the IC50 in experiment [1], in experiment [2] and in experiment [3] were 1.6 nM, 18 nM and 32 nM, respectively.
As to `Cc1cc(Oc2ccccc2F)ccc1-n1ncc(C(=O)c2cc3cc(OCCN4C[C@@H]5C[C@H]4CN5S(C)(=O)=O)c(NS(C)(=O)=O)cc3[nH]2)c1N` [Example 4-24-038, N-[2-[5-amino-1-[4-(2-fluorophenoxy)-2-methylphenyl]pyrazole-4-carbonyl]-5-[2-[(1S,4S)-2-methylsulfonyl-2,5-diazabicyclo[2.2.1]heptan-5-yl]ethoxy]-1H-indol-6-yl]methanesulfonamide], the values for the IC50 in experiment [1] (setting [4]), in experiment [2] (setting [4]) and in experiment [3] (setting [4]) were 0.55 nM, 2.9 nM and 6.9 nM, respectively.
For `Cc1cc(Oc2ccccc2F)ncc1-n1ncc(C(=O)c2cc3cc(OC(F)F)c(NC4CCN(S(C)(=O)=O)CC4)cc3[nH]2)c1N` [Example 4-23-026, [5-amino-1-[6-(2-fluorophenoxy)-4-methylpyridin-3-yl]pyrazol-4-yl]-[5-(difluoromethoxy)-6-[(1-methylsulfonylpiperidin-4-yl)amino]-1H-indol-2-yl]methanone], the results for the IC50 in experiment [1] (setting [4]), in experiment [2] (setting [4]) and in experiment [3] (setting [4]) were 4.5 nM, 19 nM and 50 nM, respectively.
For `Cc1cc(Oc2ccccc2F)ccc1-n1ncc(C(=O)c2cc3cc(F)c(NS(=O)(=O)c4cncc(Cl)c4)cc3[nH]2)c1N` [Example 5-1-542, N-[2-[5-amino-1-[4-(2-fluorophenoxy)-2-methylphenyl]pyrazole-4-carbonyl]-5-fluoro-1H-indol-6-yl]-5-chloropyridine-3-sulfonamide] the same measures were 3.6 nM, 180 nM and 430 nM.
Take `Cc1cc(Oc2ccccc2F)ccc1-n1ncc(C(=O)c2cc3cc(OCC(F)F)c(N4CC(C)(C)NS4(=O)=O)cc3[nH]2)c1N` [Example 5-1-322, [5-amino-1-[4-(2-fluorophenoxy)-2-methylphenyl]pyrazol-4-yl]-[5-(2,2-difluoroethoxy)-6-(4,4-dimethyl-1,1-dioxo-1,2,5-thiadiazolidin-2-yl)-1H-indol-2-yl]methanone]: the IC50 in experiment [1] was 4.1 nM; in experiment [2], 22 nM; in experiment [3], 70 nM.
The corresponding values for `Cc1ccc(S(=O)(=O)Nc2cc3[nH]c(C(=O)c4cnn(-c5cnc(Oc6c(F)cccc6F)cc5C)c4N)cc3cc2OCC(F)F)cc1` [Example 5-1-300, N-[2-[5-amino-1-[6-(2,6-difluorophenoxy)-4-methylpyridin-3-yl]pyrazole-4-carbonyl]-5-(2,2-difluoroethoxy)-1H-indol-6-yl]-4-methylbenzenesulfonamide] are 9.5 nM, 140 nM and 730 nM.
Take `Cc1cc(Oc2ccccc2F)ccc1-n1ncc(C(=O)c2cc3cc(F)c(NS(=O)(=O)c4cccc(C#N)c4)cc3[nH]2)c1N` [Example 5-1-490, N-[2-[5-amino-1-[4-(2-fluorophenoxy)-2-methylphenyl]pyrazole-4-carbonyl]-5-fluoro-1H-indol-6-yl]-3-cyanobenzenesulfonamide]: the IC50 in experiment [1] (setting [4]) came out at 3.7 nM; in experiment [2] (setting [4]), 110 nM; in experiment [3] (setting [4]), 430 nM.
The corresponding values for `Cc1cc(Oc2c(F)cccc2F)ncc1-n1ncc(C(=O)c2cc3cc(OCC(F)F)c(NS(=O)(=O)C4CC4)cc3[nH]2)c1N` [Example 4-24-030, N-[2-[5-amino-1-[6-(2,6-difluorophenoxy)-4-methylpyridin-3-yl]pyrazole-4-carbonyl]-5-(2,2-difluoroethoxy)-1H-indol-6-yl]cyclopropanesulfonamide] are 1.7 nM, 23 nM and 120 nM.
Turning to `Cc1cc2cc(C(=O)c3cnn(-c4cnc(Oc5ccccc5F)cc4C)c3N)[nH]c2cc1NS(=O)(=O)CC(=O)NC(C)C` [Example 5-1-058, 2-[[2-[5-amino-1-[6-(2-fluorophenoxy)-4-methylpyridin-3-yl]pyrazole-4-carbonyl]-5-methyl-1H-indol-6-yl]sulfamoyl]-N-propan-2-ylacetamide], the results for the IC50 in experiment [1], in experiment [2] and in experiment [3] were 1.6 nM, 25 nM and 58 nM, respectively.
For `Cc1cc(Oc2ccccc2F)ncc1-n1ncc(C(=O)c2cc3cc(OCC(F)F)c(NS(=O)(=O)C4CCOCC4)cc3[nH]2)c1N` [Example 5-1-326, N-[2-[5-amino-1-[6-(2-fluorophenoxy)-4-methylpyridin-3-yl]pyrazole-4-carbonyl]-5-(2,2-difluoroethoxy)-1H-indol-6-yl]oxane-4-sulfonamide] the same measures were 0.85 nM, 25 nM and 54 nM.
With `Nc1c(C(=O)c2cc3cc(F)c(NS(=O)(=O)C4CC4)cc3[nH]2)cnn1-c1c(F)cc(Oc2ccccc2F)cc1F` [Example 5-1-019, N-[2-[5-amino-1-[2,6-difluoro-4-(2-fluorophenoxy)phenyl]pyrazole-4-carbonyl]-5-fluoro-1H-indol-6-yl] cyclopropanesulfonamide], the IC50 came to 2.8 nM in experiment [1], 54 nM in experiment [2] and 120 nM in experiment [3].
The corresponding values for `Cc1cc(Oc2c(F)cccc2F)ncc1-n1ncc(C(=O)c2cc3cc(OCC(F)F)c(N4C(=O)NC5(CCN(Cc6ccccc6)CC5)C4=O)cc3[nH]2)c1N` [Example 5-1-351, 3-[2-[5-amino-1-[6-(2,6-difluorophenoxy)-4-methylpyridin-3-yl]pyrazole-4-carbonyl]-5-(2,2-difluoroethoxy)-1H-indol-6-yl]-8-benzyl-1,3,8-triazaspiro[4.5]decane-2,4-dione] are 0.65 nM, 2.4 nM and 6 nM.
Regarding `CCOc1cc2cc(C(=O)c3cnn(-c4ccc(Oc5ccccc5F)cc4C)c3N)[nH]c2cc1C1CCN(S(C)(=O)=O)CC1` [Example 5-1-073, [5-amino-1-[4-(2-fluorophenoxy)-2-methylphenyl]pyrazol-4-yl]-[5-ethoxy-6-(1-methylsulfonylpiperidin-4-yl)-1H-indol-2-yl] methanone], the IC50 in experiment [1] was 9.7 nM; in experiment [2], 32 nM; in experiment [3] it was 42 nM.
In the case of `Cc1cc(Oc2ccccc2F)ccc1-n1ncc(C(=O)c2cc3cc(OCC(F)F)c(NS(=O)(=O)c4cccc(C#N)c4)cc3[nH]2)c1N` [Example 5-1-416, N-[2-[5-amino-1-[4-(2-fluorophenoxy)-2-methylphenyl]pyrazole-4-carbonyl]-5-(2,2-difluoroethoxy)-1H-indol-6-yl]-3-cyanobenzenesulfonamide], the IC50 in experiment [1] (setting [4]) came out at 3.4 nM; in experiment [2] (setting [4]) it was 58 nM; in experiment [3] (setting [4]) it was 210 nM.
The corresponding values for `Cc1cc(Oc2ccccc2F)ccc1-n1ncc(C(=O)c2cc3cc(F)c(N4C(=O)NC(C)(C(F)(F)F)C4=O)cc3[nH]2)c1N` (stereo not drawn) [Example 5-1-412, 3-[2-[5-amino-1-[4-(2-fluorophenoxy)-2-methylphenyl]pyrazole-4-carbonyl]-5-fluoro-1H-indol-6-yl]-5-methyl-5-(trifluoromethyl) imidazolidine-2,4-dione] are 3 nM, 17 nM and 100 nM.
For the molecule `Cc1cc(Oc2ccccc2F)ccc1-n1ncc(C(=O)c2cc3cc(F)c(N4CCOC4=O)cc3[nH]2)c1N` [Example 5-1-095, 3-[2-[5-amino-1-[4-(2-fluorophenoxy)-2-methylphenyl]pyrazole-4-carbonyl]-5-fluoro-1H-indol-6-yl]-1,3-oxazolidin-2-one], the figures for the IC50 in experiment [1], in experiment [2] and in experiment [3] were 0.87 nM, 1.5 nM and 4.5 nM, respectively.
Consider `Cc1cc(Oc2ccccc2F)ncc1-n1ncc(C(=O)c2cc3cc(F)c(NS(=O)(=O)N4CCOCC4)cc3[nH]2)c1N` [Example 4-5-001, N-{2-{5-amino-1-[6-(2-fluorophenoxy)-4-methylpyridin-3-yl]pyrazole-4-carbonyl}-5-fluoro-1H-indol-6-yl}morpholine-4-sulfonamide], for which the IC50 turned out to be 1.2 nM in experiment [1] (setting [4]), 33 nM in experiment [2] (setting [4]) and 120 nM in experiment [3] (setting [4]).
